Measured values as given in PMC7496096, “Functional Characterisation of ClpP Mutations Conferring Resistance to Acyldepsipeptide Antibiotics in Firmicutes” (Chembiochem, 2020).
In brackets after ≈: the same amount, converted by molar mass. Like-named read-outs stand apart in the source and are kept apart here. Positions of bridges follow the written chain, without caps; N, C: chain ends. Non-standard residues stand in square brackets, D forms with d. Residues, ends and D or L forms follow the SMILES beside them. *: point of attachment. Octatrienoyl(2E,4E,6E) = C/C=C/C=C/C=C/C(=O)*; Pro(4R-Me) = C[C@H]1CN[C@H](C(=O)O)C1; NMeA = CN[C@@H](C)C(=O)O; X1 = CCC/C=C/C(=O)*

Columns and labels:
[1] = system: E. faecalis RC3; format: cell-based, Enterococcus faecalis; conditions: resistant clone of E. faecalis 27159; ClpP G74→D (ClpP core; α3)
Description: (§1) Determination of antibacterial activity: ADEP1 was purified from the culture supernatant of S. hawaiiensis NRRL 15010 as described.4 ADEPs 2, 4, 7, 9 were custom synthesised by EMC Microcollections, Tübingen, or provided by AiCuris, Wuppertal, Germany. The minimal inhibitory concentration (MIC) was determined by broth microdilution in Mueller‐Hinton broth (without cation adjustment) according to the guidelines of the Clinical Laboratory Standards Institute (CLSI).69 The inoculum was set to 5×10^4 CFU mL^−1 to allow some distance to the determined spontaneous resistance frequencies. […] All other ADEPs were used from DMSO stock solutions kept at −20 °C.
(§2) Screening for ADEP‐resistant mutants and determination of resistance rates: Single colonies of wild‐type strains grown on Mueller‐Hinton agar plates overnight were suspended in sterile saline and a final inoculum of 5×10^6 cells was spread on plates supplemented with different ADEP congeners at 4× and 10× the MIC. For B. subtilis strain 3xclpP, ADEP7‐containing Mueller‐Hinton agar plates were additionally supplemented with 1 mM IPTG. Resistant colonies were counted after 24 h at 37 °C and colonies were randomly chosen for MIC determinations and sequencing. Mutations in the clpP gene of the respective isolated mutants were analysed by amplifying the clpP gene (and upstream promoter region) by PCR and sequencing of the resulting PCR amplicons (LGC genomics). Sequencing data were analysed by using SnapGene software (GSL Biotech).

[2] = system: E. faecalis RC8; format: cell-based, Enterococcus faecalis; conditions: resistant clone of E. faecalis 27159; ClpP D170→Y, oligomerisation sensor
Description: as §1, §2

[3] = system: E. faecalis RC4; format: cell-based, Enterococcus faecalis; conditions: resistant clone of E. faecalis 27159; ClpP S43→STOP, premature stop
Description: as §1, §2

[4] = system: E. faecalis RC6; format: cell-based, Enterococcus faecalis; conditions: resistant clone of E. faecalis 27159; ClpP R147→H (equatorial interface; α5)
Description: as §1, §2

[5] = system: E. faecalis RC7; format: cell-based, Enterococcus faecalis; conditions: resistant clone of E. faecalis 27159; ClpP G68→D (ClpP core)
Description: as §1, §2

[6] = system: E. faecalis RC1; format: cell-based, Enterococcus faecalis; conditions: resistant clone of E. faecalis 27159; ClpP G100→STOP (A96→V; M99→Y), premature stop
Description: as §1, §2

[7] = system: E. faecalis RC5; format: cell-based, Enterococcus faecalis; conditions: resistant clone of E. faecalis 27159; ClpP A180→V (C-terminus; α7)
Description: as §1, §2

[8] = system: E. faecalis RC2; format: cell-based, Enterococcus faecalis; conditions: resistant clone of E. faecalis 27159; ClpP H123→Q, active site
Description: as §1, §2

[9] = system: E. faecalis ATCC 29212; test: microbe, parasite or virus in culture; format: cell-based, Enterococcus faecalis; conditions: broth microdilution, Mueller-Hinton broth (without cation adjustment), CLSI, inoculum 5×10^4 CFU mL^−1, wild type
Description: as §1

[10] = system: S. pneumoniae RC2; format: cell-based, Streptococcus pneumoniae; conditions: resistant clone of S. pneumoniae G9A; ClpP START→I, no expression
Description: as §1, §2

[11] = system: S. pneumoniae RC3; format: cell-based, Streptococcus pneumoniae; conditions: resistant clone of S. pneumoniae G9A; ClpP R171→H, oligomerisation sensor
Description: as §1, §2

[12] = system: S. pneumoniae RC1; format: cell-based, Streptococcus pneumoniae; conditions: resistant clone of S. pneumoniae G9A; ClpP A94→G (ClpP core; β4)
Description: as §1, §2

[13] = system: B. subtilis 168; test: microbe, parasite or virus in culture; format: cell-based, Bacillus subtilis; conditions: broth microdilution, Mueller-Hinton broth (without cation adjustment), CLSI, inoculum 5×10^4 CFU mL^−1, wild type
Description: as §1

[14] = system: B. subtilis RC16; format: cell-based, Bacillus subtilis; conditions: resistant clone of B. subtilis 168; ClpP I44→F (ClpP core; α2)
Description: as §1, §2

[15] = system: B. subtilis RC19; format: cell-based, Bacillus subtilis; conditions: resistant clone of B. subtilis 168; ClpP Y183→C (C-terminus; α7)
Description: as §1, §2

[16] = system: B. subtilis RC17; format: cell-based, Bacillus subtilis; conditions: resistant clone of B. subtilis 168; ClpP D172→V, active site
Description: as §1, §2

[17] = system: B. subtilis RC15; format: cell-based, Bacillus subtilis; conditions: resistant clone of B. subtilis 168; ClpP G69→S (ClpP core)
Description: as §1, §2

[18] = system: B. subtilis RC18; format: cell-based, Bacillus subtilis; conditions: resistant clone of B. subtilis 168; ClpP L190→S, ADEP binding site
Description: as §1, §2

[19] = system: B. subtilis RC13; format: cell-based, Bacillus subtilis; conditions: resistant clone of B. subtilis 168; ClpP I93→STOP, premature stop
Description: as §1, §2

[20] = system: B. subtilis RC14; format: cell-based, Bacillus subtilis; conditions: resistant clone of B. subtilis 168; ClpP G107→S (ClpP core)
Description: as §1, §2

[21] = system: E. faecalis 27159; format: cell-based, Enterococcus faecalis; conditions: broth microdilution, Mueller-Hinton broth; wildtype
Description: as §1

[22] = system: S. pyogenes Wacker; format: cell-based, Streptococcus pyogenes; conditions: broth microdilution, Mueller-Hinton broth; wildtype
Description: as §1

[23] = system: S. pyogenes RC2; format: cell-based, Streptococcus pyogenes; conditions: resistant clone of S. pyogenes Wacker; ClpP L46→P (ClpP core; α2)
Description: as §1
as §2, with “Resistant colonies were counted after 24 h at 37 °C and colonies were randomly chosen for MIC determinations and sequencing.” left out

[24] = system: S. pyogenes RC1; format: cell-based, Streptococcus pyogenes; conditions: resistant clone of S. pyogenes Wacker; Y insertion after N40 (ClpP core; α2)
Description: as §1
as §2, with “Resistant colonies were counted after 24 h at 37 °C and colonies were randomly chosen for MIC determinations and sequencing.” left out

[25] = system: B. subtilis, Enterococcus faecium, E. faecalis, S. pneumoniae, and Streptococcus pyogenes; test: Spontaneous resistance frequency, further Firmicutes; format: cell-based; conditions: same range as the S. aureus resistance rates (10^−6)
Description: as §2

[26] = system: S. pneumoniae G9A; format: cell-based, Streptococcus pneumoniae; conditions: broth microdilution, Mueller-Hinton broth; wildtype
Description: as §1

[27] = system: S. aureus 133; test: microbe, parasite or virus in culture; format: cell-based, Staphylococcus aureus; conditions: broth microdilution, Mueller-Hinton broth (without cation adjustment), CLSI, inoculum 5×10^4 CFU mL^−1, wild type
Description: as §1

[28] = system: S. aureus ATCC 29213; test: microbe, parasite or virus in culture; format: cell-based, Staphylococcus aureus; conditions: broth microdilution, Mueller-Hinton broth (without cation adjustment), CLSI, inoculum 5×10^4 CFU mL^−1, wild type
Description: as §1

[29] = Stability of dissolved compound; format: physicochemical; conditions: dissolved in DMSO; reason for fresh dissolution before MIC determination
Description: as §1

[30] = system: S. aureus; test: MIC against S. aureus, summary of Table 1; format: cell-based, Staphylococcus aureus; conditions: text summary of Table 1, strain not named
Description: as §1

[31] = system: S. aureus 133; test: Spontaneous resistance rate on ADEP-containing agar; format: cell-based, Staphylococcus aureus; conditions: ADEP exposure 4× MIC in Mueller-Hinton agar; 5×10^6 cells plated, colonies counted after 24 h at 37 °C
Description: as §2

[32] = system: S. aureus ATCC 29213; test: as above; format: cell-based, Staphylococcus aureus; conditions: ADEP exposure 4× MIC in Mueller-Hinton agar; 5×10^6 cells plated, colonies counted after 24 h at 37 °C
Description: as §2

Structure (SMILES): C/C=C/C=C/C=C/C(=O)N[C@@H](Cc1ccccc1)C(=O)N[C@H]1COC(=O)[C@@H]2C[C@@H](C)CN2C(=O)[C@H](C)NC(=O)[C@H](C)N(C)C(=O)[C@@H]2CCCN2C1=O [ADEP1] ({Octatrienoyl(2E,4E,6E)}-FSP[NMeA]A[Pro(4R-Me)]; ester 2-C)
- MIC [1]: >64 µg/mL
- MIC [2]: >64 µg/mL
- MIC [3]: >64 µg/mL
- MIC [4]: >64 µg/mL
- MIC [5]: >64 µg/mL
- MIC [6]: >64 µg/mL
- MIC [7]: >64 µg/mL
- MIC [8]: >64 µg/mL
- MIC [9]: 0.063 µg/mL (≈ 0.0876 µM)
- MIC [10]: >32 µg/mL
- MIC [11]: >32 µg/mL
- MIC [12]: >32 µg/mL
- MIC [13]: 0.063 µg/mL (≈ 0.0876 µM)
- MIC [14]: 8 µg/mL (≈ 11.1 µM)
- MIC [15]: >64 µg/mL
- MIC [16]: >64 µg/mL
- MIC [17]: >64 µg/mL
- MIC [18]: 16 µg/mL (≈ 22.3 µM)
- MIC [19]: >64 µg/mL
- MIC [20]: 0.5 µg/mL (≈ 0.696 µM)
- MIC [21]: 0.12 µg/mL (≈ 0.167 µM)
- MIC [22]: 0.12 µg/mL (≈ 0.167 µM)
- MIC [23]: >32 µg/mL
- MIC [24]: >32 µg/mL
- spontaneous resistance frequencies [25]: in the same range
- MIC [26]: 0.12 µg/mL (≈ 0.167 µM)
- MIC [27]: 0.5 µg/mL (≈ 0.696 µM)
- MIC [28]: 1 µg/mL (≈ 1.39 µM)
- stability [29]: rather unstable

Structure (SMILES): CCC/C=C/C(=O)N[C@@H](Cc1ccccc1)C(=O)N[C@H]1COC(=O)[C@@H]2CCCN2C(=O)[C@H](C)NC(=O)[C@H](C)N(C)C(=O)[C@@H]2CCCN2C1=O [ADEP7] (X1-FSP[NMeA]AP; ester 2-C)
- MIC [9]: 2 µg/mL (≈ 2.94 µM)
- MIC [13]: 0.5 µg/mL (≈ 0.734 µM)
- minimal inhibitory concentration (MIC) against S. aureus [30]: 8 µg/mL (≈ 11.8 µM)
- MIC [27]: 4 µg/mL (≈ 5.88 µM)
- Resistance rate [31]: 4×10^−6
- Resistance rate [32]: 6×10^−7

Structure (SMILES): C[C@H]1c2cccc(O)c2C(=O)C2=C(O)[C@]3(O)C(=O)C(C(N)=O)=C(O)[C@@H](N(C)C)[C@@H]3[C@@H](O)[C@@H]21 [Doxycycline, reference compound]
- MIC ([9]; Enterococcus faecalis, ATCC29212, read-out: MIC): 4 to 8 µg/mL (≈ 9 to 18 µM)
- MIC ([13]; Bacillus subtilis, 168, read-out: MIC): 0.125 µg/mL (≈ 0.281 µM)
- MIC ([27]; Staphylococcus aureus, 133, read-out: MIC): 0.06 µg/mL (≈ 0.135 µM)
- MIC ([28]; Staphylococcus aureus, ATCC29213, read-out: MIC): 0.06 µg/mL (≈ 0.135 µM)
